Data from patent US9801901B2, “Alginate oligomers for use in overcoming multidrug resistance in bacteria” (priority 2009, dated 2017).
Converted amounts (≈) assume the structure as drawn. Where two headings read alike, the source gives them in different places. Marks after values point to notes of the source that are not given here.

Key:
[1] = test system: V19 non MDR Acinetobacter baumannii; test: MIC assay, CAMHB with M-block alginate oligomer, no visible growth; type: cell-based; details: Table 7, V19 non MDR Acin. baum
From the text: (§1) The study described in Example 1 was repeated with the following strains of Acinetobacter baumannii, antibiotics and M-block alginate oligomer in place of OligoG CF-5/20 as detailed in Table 7. The M-block oligomer is 100% M with a DPn of 15 to 18,

MDR Pseudomonas strains = test: MIC assay of Example 1, summary over the MDR Pseudomonas strains; type: cell-based, Pseudomonas aeruginosa
[2] = test system: V23 1322 Burkholderia cepacia; test: MIC assay, CAMHB with alginate oligomer, no visible growth; type: cell-based
[3] = test system: Acinetobacter baumannii MDR ACB from Libya (V4); test: as above; type: cell-based; details: for effect in combination with alginate oligomers: Example 1, Acinetobacter baumannii isolate; for change of MIC in combination with azithromycin by alginate oligomer: Table 3, MDR Acinetobacter baumannii isolate
From the text: The study described in Example 1 was repeated with the following strains of bacteria and antibiotics as detailed in Tables 4, 5 and 6.
as §1

[4] = test system: Acinetobacter baumannii (MDR ACB, Libya, V4); test: MIC-assay, Mueller-Hinton broth with G-block alginate, 384-well, OD600
Streptococcus oralis = test: MIC-assay, Mueller-Hinton broth with G-block alginate, 384-well, OD600 (Table 12); type: cell-based; details: Streptococcus oralis (5610, V17) MDR
From the text: (§2) Minimum inhibitory concentration (MICs) of different antibiotics for strains of Streptococcus oralis and Staphylococcus aureus (MRSA) displaying MDR phenotypes in the presence of varying concentrations of OligoCF-5/20 (0-10%). (MIC values are expressed in μg ml^−1).

[5] = test system: Staphylococcus aureus (MRSA) U50; test: as above; type: cell-based; details: MRSA 1040s, U50 MDR, read-out: MIC
From the text: as §2

[6] = test system: V10 (Egypt) Acinetobacter lwoffii; test: MIC assay, CAMHB with alginate oligomer, no visible growth; type: cell-based; details: Table 5, V10 MDR Acin. lwoff
[7] = test system: Pseudomonas aeruginosa CFA 24-1, clinical mucoid strain (R80); test: as above; type: cell-based; details: Pseudomonas aeruginosa, Table 1, R80, read-out: MIC
[8] = test system: Pseudomonas aeruginosa (R22, PSA, V1); test: MIC-assay, Mueller-Hinton broth with G-block alginate, 384-well, OD600
[9] = test system: Klebsiella pneumoniae KP05 506 from India (V3); test: MIC assay, CAMHB with alginate oligomer, no visible growth; type: cell-based; details: Klebsiella pneumoniae, Table 1, V3 KP05 506, read-out: MIC
[10] = Burkholderia cepacia, Table 5, V23 MDR Burk cep, OligoCF-5/20 0G, read-out: MIC
[11] = Table 5, V23 MDR Burk cep, OligoCF-5/20 +2% G
[12] = Table 5, V23 MDR Burk cep, OligoCF-5/20 +6% G
[13] = Table 5, V23 MDR Burk cep, OligoCF-5/20 +10% G
[14] = Acinetobacter baumannii, Table 1, V4 ACB (Libya), OligoCF-5/20 0G, read-out: MIC
[15] = Acinetobacter baumannii, Table 1, V4 ACB (Libya), OligoCF-5/20 +10% G, read-out: MIC
[16] = Table 9, G-block (OligoCF-5/20) 0%
[17] = Table 9, G-block (OligoCF-5/20) 2%
[18] = Table 9, G-block (OligoCF-5/20) 6%
[19] = Table 9, G-block (OligoCF-5/20) 10%
[20] = G-block (OligoCF-5/20) 0%, read-out: MIC
[21] = G-block (OligoCF-5/20) 6%, read-out: MIC
[22] = G-block (OligoCF-5/20) 10%, read-out: MIC

O=C(O)c1cn(C2CC2)c2cc(N3CCNCC3)c(F)cc2c1=O [Ciprofloxacin]
MIC ([1]; M-block oligomer 0M): 64 µg/mL (≈ 193 µM)
MIC ([1]; M-block oligomer +2% M): 32 µg/mL (≈ 96.6 µM)
MIC ([1]; M-block oligomer +6% M): 16 µg/mL (≈ 48.3 µM)
effectiveness when used in combination with the alginate oligomers (MDR Pseudomonas strains): more effective
MIC [2, 10]: 64 µg/mL (≈ 193 µM)
MIC [2, 11]: 64 µg/mL (≈ 193 µM)
MIC [2, 12]: 64 µg/mL (≈ 193 µM)
MIC [2, 13]: 32^† μg/ml
MIC [3, 14]: 64 µg/mL (≈ 193 µM)
MIC ([3]; Acinetobacter baumannii, Table 1, V4 ACB (Libya), OligoCF-5/20 +2% G, read-out: MIC): 32 µg/mL (≈ 96.6 µM)
MIC ([3]; Acinetobacter baumannii, Table 1, V4 ACB (Libya), OligoCF-5/20 +6% G, read-out: MIC): 16 µg/mL (≈ 48.3 µM)
MIC [3, 15]: 16 µg/mL (≈ 48.3 µM)
MIC ([3]; Acinetobacter baumannii, Table 7, V4 MDR Acin baum (Libya), M-block oligomer 0M, read-out: MIC): 64 µg/mL (≈ 193 µM)
MIC ([3]; Acinetobacter baumannii, Table 7, V4 MDR Acin baum (Libya), M-block oligomer +2% M, read-out: MIC): 64 µg/mL (≈ 193 µM)
MIC ([3]; Acinetobacter baumannii, Table 7, V4 MDR Acin baum (Libya), M-block oligomer +6% M, read-out: MIC): 64 µg/mL (≈ 193 µM)
effect in combination with alginate oligomers [3]: more positive effect
change of MIC in combination with azithromycin by alginate oligomer [3]: reduced
MIC [4, 16]: 4 µg/mL (≈ 12.1 µM)
MIC [4, 17]: 1 µg/mL (≈ 3.02 µM)
MIC [4, 18]: 1 µg/mL (≈ 3.02 µM)
MIC [4, 19]: 0.5 µg/mL (≈ 1.51 µM)
MIC (Streptococcus oralis; [20]): 32 µg/mL (≈ 96.6 µM)
MIC (Streptococcus oralis; G-block (OligoCF-5/20) 2%): < 0.0625 µg/mL
MIC (Streptococcus oralis; [21]): 2 µg/mL (≈ 6.04 µM)
MIC (Streptococcus oralis; [22]): 2 µg/mL (≈ 6.04 µM)
MIC ([5]; G-block (OligoCF-5/20) 0%): 32 µg/mL (≈ 96.6 µM)
MIC ([5]; G-block (OligoCF-5/20) 2%): 32 µg/mL (≈ 96.6 µM)
MIC ([5]; G-block (OligoCF-5/20) 6%): > 1020 µg/mL
MIC ([5]; G-block (OligoCF-5/20) 10%): > 1020 µg/mL

CC(C)(O/N=C(\C(=O)N[C@@H]1C(=O)N2C(C(=O)[O-])=C(C[n+]3ccccc3)CS[C@H]12)c1csc(N)n1)C(=O)O [Ceftazidime]
MIC ([6]; Acinetobacter lwoffii, OligoCF-5/20 0G, read-out: MIC): 2 µg/mL (≈ 3.66 µM)
MIC ([6]; OligoCF-5/20 +2% G): 2 µg/mL (≈ 3.66 µM)
MIC ([6]; OligoCF-5/20 +6% G): <0.5^† μg/ml
MIC ([6]; OligoCF-5/20 +10% G): <0.5^† μg/ml
effectiveness when used in combination with the alginate oligomers (MDR Pseudomonas strains): more effective
MIC [2, 10]: 64 µg/mL (≈ 117 µM)
MIC ([2]; Burkholderia cepacia, Table 6, V23, Experiment 1 (18-03-10), OligoCF-5/20 0G, read-out: MIC): 128 µg/mL (≈ 234 µM)
MIC ([2]; Burkholderia cepacia, Table 6, V23, Experiment 2 (18-03-10), OligoCF-5/20 0G, read-out: MIC): 64 µg/mL (≈ 117 µM)
MIC ([2]; Burkholderia cepacia, Table 6, V23, Experiment 3 (19-03-10), OligoCF-5/20 0G, read-out: MIC): 64 µg/mL (≈ 117 µM)
MIC [2, 11]: 32^† μg/ml
MIC [2, 12]: 8 µg/mL (≈ 14.6 µM)
MIC [2, 13]: <0.5^† μg/ml
MIC ([2]; Table 6, V23, Experiment 1 (18-03-10), OligoCF-5/20 +2% G): 64^† μg/ml
MIC ([2]; Table 6, V23, Experiment 1 (18-03-10), OligoCF-5/20 +6% G): 16^† μg/ml
MIC ([2]; Table 6, V23, Experiment 1 (18-03-10), OligoCF-5/20 +10% G): 8^† μg/ml
MIC ([2]; Table 6, V23, Experiment 2 (18-03-10), OligoCF-5/20 +2% G): 64 µg/mL (≈ 117 µM)
MIC ([2]; Table 6, V23, Experiment 2 (18-03-10), OligoCF-5/20 +6% G): 32^† μg/ml
MIC ([2]; Table 6, V23, Experiment 2 (18-03-10), OligoCF-5/20 +10% G): 32^† μg/ml
MIC ([2]; Table 6, V23, Experiment 3 (19-03-10), OligoCF-5/20 +2% G): 32^† μg/ml
MIC ([2]; Table 6, V23, Experiment 3 (19-03-10), OligoCF-5/20 +6% G): 16^† μg/ml
MIC ([2]; Table 6, V23, Experiment 3 (19-03-10), OligoCF-5/20 +10% G): 4^† μg/ml
MIC [3, 14]: 512 µg/mL (≈ 937 µM)
MIC [3, 15]: 256 µg/mL (≈ 468 µM)
effect in combination with alginate oligomers [3]: more positive effect
MIC ([3]; Table 1, V4 ACB (Libya), OligoCF-5/20 +6% G): 512 µg/mL (≈ 937 µM)
change of MIC in combination with azithromycin by alginate oligomer [3]: reduced
MIC [4, 16]: 16 µg/mL (≈ 29.3 µM)
MIC [4, 17]: 8 µg/mL (≈ 14.6 µM)
MIC [4, 18]: 8 µg/mL (≈ 14.6 µM)
MIC [4, 19]: 8 µg/mL (≈ 14.6 µM)
MIC ([7]; OligoCF-5/20 0G): < 1 µg/mL
MIC ([7]; OligoCF-5/20 +2% G): < 1 µg/mL
MIC ([7]; OligoCF-5/20 +6% G): < 1 µg/mL
MIC ([7]; OligoCF-5/20 +10% G): < 1 µg/mL
MIC ([8]; Table 8, G-block (OligoCF-5/20) 0%): > 16 µg/mL
MIC ([8]; Table 8, G-block (OligoCF-5/20) 2%): > 16 µg/mL
MIC ([8]; Table 8, G-block (OligoCF-5/20) 6%): > 16 µg/mL
MIC ([8]; Table 8, G-block (OligoCF-5/20) 10%): > 16 µg/mL
MIC (Streptococcus oralis; [20]): 8 µg/mL (≈ 14.6 µM)
MIC (Streptococcus oralis; G-block (OligoCF-5/20) 2%, read-out: MIC): 4 µg/mL (≈ 7.32 µM)
MIC (Streptococcus oralis; [21]): 0.0312 µg/mL (≈ 0.0572 µM)
MIC (Streptococcus oralis; [22]): 1 µg/mL (≈ 1.83 µM)
MIC ([5]; G-block (OligoCF-5/20) 0%): > 16 µg/mL
MIC ([5]; G-block (OligoCF-5/20) 2%): 16 µg/mL (≈ 29.3 µM)
MIC ([5]; G-block (OligoCF-5/20) 6%): 8 µg/mL (≈ 14.6 µM)
MIC ([5]; G-block (OligoCF-5/20) 10%): 2 µg/mL (≈ 3.66 µM)
MIC ([9]; OligoCF-5/20 0G): > 1020 µg/mL
MIC ([9]; OligoCF-5/20 +2% G): > 1020 µg/mL
MIC ([9]; OligoCF-5/20 +6% G): > 1020 µg/mL
MIC ([9]; OligoCF-5/20 +10% G): > 1020 µg/mL
